Test results as given in ChEMBL document CHEMBL1156297, “Sulfonamide linked neoglycoconjugates--a new class of inhibitors for cancer-associated carbonic anhydrases” (J Med Chem, 2010).

Key:
Carbonic anhydrase 1 = Carbonic anhydrase 1 (Homo sapiens, UniProt P00915)
Carbonic anhydrase 9 = Carbonic anhydrase 9 (Homo sapiens, UniProt Q16790)
Carbonic anhydrase 2 = Carbonic anhydrase 2 (Homo sapiens, UniProt P00918)
Carbonic anhydrase 12 = Carbonic anhydrase 12 (Homo sapiens, UniProt O43570)
[1] = Permeability by PAMPA; format: ADME; settings: read-out: permeability

Chain of Carbonic anhydrase 12 (O43570 whole entry): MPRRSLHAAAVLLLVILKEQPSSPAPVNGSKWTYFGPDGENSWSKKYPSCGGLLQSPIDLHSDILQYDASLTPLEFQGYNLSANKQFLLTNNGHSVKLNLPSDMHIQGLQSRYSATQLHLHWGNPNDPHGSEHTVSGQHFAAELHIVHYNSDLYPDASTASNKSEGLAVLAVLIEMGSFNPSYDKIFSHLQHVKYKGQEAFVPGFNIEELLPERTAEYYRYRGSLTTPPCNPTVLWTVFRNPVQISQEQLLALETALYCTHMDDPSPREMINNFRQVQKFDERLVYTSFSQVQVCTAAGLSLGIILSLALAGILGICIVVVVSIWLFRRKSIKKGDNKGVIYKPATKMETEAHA
Chain of Carbonic anhydrase 1 (P00915 whole entry): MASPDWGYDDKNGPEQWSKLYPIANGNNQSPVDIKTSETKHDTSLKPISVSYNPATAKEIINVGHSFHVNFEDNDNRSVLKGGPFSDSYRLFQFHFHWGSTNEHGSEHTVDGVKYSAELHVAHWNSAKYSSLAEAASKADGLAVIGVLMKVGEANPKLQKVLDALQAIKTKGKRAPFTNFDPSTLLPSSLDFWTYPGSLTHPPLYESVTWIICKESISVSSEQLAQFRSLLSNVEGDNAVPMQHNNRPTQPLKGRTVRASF

| SMILES | Ki (Carbonic anhydrase 1) | Ki (Carbonic anhydrase 2) | Ki (Carbonic anhydrase 12) | Papp [1] | Ki (Carbonic anhydrase 9) |
| --- | --- | --- | --- | --- | --- |
| CC(=O)OC[C@H]1O[C@@H](SNCCc2ccc(S(N)(=O)=O)cc2)[C@H](OC(C)=O)[C@@H](OC(C)=O)[C@H]1OC(C)=O | 4100 nM | 13.3 nM | 16.7 nM | – | 107 nM |
| CC(=O)OC[C@H]1O[C@@H](SNCc2ccc(S(N)(=O)=O)cc2)[C@H](OC(C)=O)[C@@H](OC(C)=O)[C@@H]1O[C@H]1O[C@H](COC(C)=O)[C@@H](OC(C)=O)[C@H](OC(C)=O)[C@H]1OC(C)=O | 3460 nM | 13.1 nM | 8.5 nM | – | – |
| NS(=O)(=O)c1ccc(CNS(=O)(=O)[C@@H]2O[C@H](C(=O)O)[C@H](O)[C@H](O)[C@H]2O)cc1 | 81 nM | 7.1 nM | 8.9 nM | – | 97 nM |
| CC(=O)OC[C@H]1O[C@@H](SNCc2ccc(S(N)(=O)=O)cc2)[C@H](OC(C)=O)[C@@H](OC(C)=O)[C@@H]1OC(C)=O | 4160 nM | 14.8 nM | 11.5 nM | – | – |
| CC(=O)OC[C@H]1O[C@@H](SNCCc2ccc(S(N)(=O)=O)cc2)[C@H](OC(C)=O)[C@@H](OC(C)=O)[C@@H]1O[C@H]1O[C@H](COC(C)=O)[C@@H](OC(C)=O)[C@H](OC(C)=O)[C@H]1OC(C)=O | 6750 nM | 15.1 nM | 8.8 nM | – | 94 nM |
| CC(=O)OC[C@H]1O[C@@H](S(=O)(=O)NCCc2ccc(S(N)(=O)=O)cc2)[C@H](OC(C)=O)[C@@H](OC(C)=O)[C@H]1OC(C)=O | 4710 nM | 73.8 nM | 9.4 nM | – | – |
| COC(=O)[C@H]1O[C@@H](S(=O)(=O)NCc2ccc(S(N)(=O)=O)cc2)[C@H](OC(C)=O)[C@@H](OC(C)=O)[C@H]1OC(C)=O | 2400 nM | 65.8 nM | 9.8 nM | – | – |
| CC(=O)OC[C@H]1O[C@@H](S(=O)(=O)NCCc2ccc(S(N)(=O)=O)cc2)[C@H](OC(C)=O)[C@@H](OC(C)=O)[C@@H]1O[C@H]1O[C@H](COC(C)=O)[C@@H](OC(C)=O)[C@H](OC(C)=O)[C@H]1OC(C)=O | 5570 nM | 15.2 nM | 8.8 nM | – | 93 nM |
| CC(=O)OC[C@H]1O[C@@H](SNCCc2ccc(S(N)(=O)=O)cc2)[C@H](OC(C)=O)[C@@H](OC(C)=O)[C@@H]1OC(C)=O | 3890 nM | 14.5 nM | 13.6 nM | – | 97 nM |
| CC(=O)OC[C@H]1O[C@@H](S(=O)(=O)NCc2ccc(S(N)(=O)=O)cc2)[C@H](OC(C)=O)[C@@H](OC(C)=O)[C@@H]1O[C@H]1O[C@H](COC(C)=O)[C@@H](OC(C)=O)[C@H](OC(C)=O)[C@H]1OC(C)=O | 2040 nM | 62.5 nM | 9.1 nM | – | – |
| CC(=O)OC[C@H]1O[C@@H](O[C@H]2[C@H](OC(C)=O)[C@@H](OC(C)=O)[C@H](SNCCc3ccc(S(N)(=O)=O)cc3)O[C@@H]2COC(C)=O)[C@H](OC(C)=O)[C@@H](OC(C)=O)[C@H]1OC(C)=O | 8040 nM | 12 nM | 8.7 nM | – | 97 nM |
| CC(=O)OC[C@H]1O[C@@H](O[C@H]2[C@H](OC(C)=O)[C@@H](OC(C)=O)[C@H](S(=O)(=O)NCCc3ccc(S(N)(=O)=O)cc3)O[C@@H]2COC(C)=O)[C@H](OC(C)=O)[C@@H](OC(C)=O)[C@H]1OC(C)=O | 3460 nM | 56.2 nM | 9.5 nM | – | 97 nM |
| COC(=O)[C@H]1O[C@@H](S(=O)(=O)NCCc2ccc(S(N)(=O)=O)cc2)[C@H](OC(C)=O)[C@@H](OC(C)=O)[C@H]1OC(C)=O | 3210 nM | 62.7 nM | 9.7 nM | – | 95 nM |
| NS(=O)(=O)c1ccc(CCNS(=O)(=O)[C@@H]2O[C@H](CO)[C@@H](O[C@H]3O[C@H](CO)[C@@H](O)[C@H](O)[C@H]3O)[C@H](O)[C@H]2O)cc1 | 102 nM | 5.2 nM | 7.3 nM | – | 81 nM |
| NS(=O)(=O)c1ccc(CCNS(=O)(=O)[C@@H]2O[C@H](CO)[C@@H](O[C@@H]3O[C@H](CO)[C@H](O)[C@H](O)[C@H]3O)[C@H](O)[C@H]2O)cc1 | 78 nM | 4.6 nM | 9.1 nM | – | 100 nM |
| NS(=O)(=O)c1ccc(CCNS(=O)(=O)[C@@H]2O[C@H](C(=O)O)[C@H](O)[C@H](O)[C@H]2O)cc1 | 97 nM | 4.7 nM | 9.5 nM | – | 96 nM |
| CC(=O)OC[C@H]1O[C@@H](O[C@H]2[C@H](OC(C)=O)[C@@H](OC(C)=O)[C@H](S(=O)(=O)NCc3ccc(S(N)(=O)=O)cc3)O[C@@H]2COC(C)=O)[C@H](OC(C)=O)[C@@H](OC(C)=O)[C@H]1OC(C)=O | 4930 nM | 58.8 nM | 10.4 nM | – | – |
| CC(=O)OC[C@H]1O[C@@H](S(=O)(=O)NCc2ccc(S(N)(=O)=O)cc2)[C@H](OC(C)=O)[C@@H](OC(C)=O)[C@@H]1OC(C)=O | 120 nM | 14.8 nM | 9.3 nM | < 0.05 ×10⁻⁶ cm/s | – |
| CC(=O)Nc1nnc(S(N)(=O)=O)s1 [ACETAZOLAMIDE] | – | – | – | < 0.15 ×10⁻⁶ cm/s | – |
| CC(=O)OC[C@H]1O[C@@H](O[C@H]2[C@H](OC(C)=O)[C@@H](OC(C)=O)[C@H](SNCc3ccc(S(N)(=O)=O)cc3)O[C@@H]2COC(C)=O)[C@H](OC(C)=O)[C@@H](OC(C)=O)[C@H]1OC(C)=O | 6830 nM | 15.5 nM | 9.8 nM | – | – |

More lines, main results first:

| Ki (Carbonic anhydrase 1) | Ki (Carbonic anhydrase 2) | Ki (Carbonic anhydrase 12) | Papp [1] | SMILES | Ki (Carbonic anhydrase 9) |
| --- | --- | --- | --- | --- | --- |
| 87 nM | 7.8 nM | 8.7 nM | – | NS(=O)(=O)c1ccc(CNS(=O)(=O)[C@@H]2O[C@H](CO)[C@H](O)[C@H](O)[C@H]2O)cc1 | – |
| 101 nM | 4.8 nM | 8.2 nM | – | NS(=O)(=O)c1ccc(CNS(=O)(=O)[C@@H]2O[C@H](CO)[C@@H](O[C@H]3O[C@H](CO)[C@@H](O)[C@H](O)[C@H]3O)[C@H](O)[C@H]2O)cc1 | 98 nM |
| 110 nM | 18.1 nM | 15.6 nM | – | COC(=O)[C@H]1O[C@@H](SNCc2ccc(S(N)(=O)=O)cc2)[C@H](OC(C)=O)[C@@H](OC(C)=O)[C@H]1OC(C)=O | 102 nM |
| 90 nM | 15.4 nM | 9.5 nM | – | CC(=O)OC[C@H]1O[C@@H](S(=O)(=O)NCCc2ccc(S(N)(=O)=O)cc2)[C@H](OC(C)=O)[C@@H](OC(C)=O)[C@@H]1OC(C)=O | – |
| 110 nM | 16.3 nM | 9.9 nM | – | CC(=O)OC[C@H]1O[C@@H](S(=O)(=O)NCc2ccc(S(N)(=O)=O)cc2)[C@H](OC(C)=O)[C@@H](OC(C)=O)[C@H]1OC(C)=O | – |
| 110 nM | 16.2 nM | 9.5 nM | – | COC(=O)[C@H]1O[C@@H](SNCCc2ccc(S(N)(=O)=O)cc2)[C@H](OC(C)=O)[C@@H](OC(C)=O)[C@H]1OC(C)=O | – |
| 107 nM | 5 nM | 8.9 nM | – | NS(=O)(=O)c1ccc(CNS(=O)(=O)[C@@H]2O[C@H](CO)[C@@H](O[C@@H]3O[C@H](CO)[C@H](O)[C@H](O)[C@H]3O)[C@H](O)[C@H]2O)cc1 | 106 nM |
| 82 nM | 7.6 nM | 7.8 nM | – | NS(=O)(=O)c1ccc(CCNS(=O)(=O)[C@@H]2O[C@H](CO)[C@H](O)[C@H](O)[C@H]2O)cc1 | 100 nM |
| 120 nM | 13.4 nM | 15.5 nM | – | CC(=O)OC[C@H]1O[C@@H](SNCc2ccc(S(N)(=O)=O)cc2)[C@H](OC(C)=O)[C@@H](OC(C)=O)[C@H]1OC(C)=O | – |
| 88 nM | 7.8 nM | 7.6 nM | – | NS(=O)(=O)c1ccc(CCNS(=O)(=O)[C@@H]2O[C@H](CO)[C@@H](O)[C@H](O)[C@H]2O)cc1 | 84 nM |
| 102 nM | 9.1 nM | 8.3 nM | < 0.05 ×10⁻⁶ cm/s | NS(=O)(=O)c1ccc(CNS(=O)(=O)[C@@H]2O[C@H](CO)[C@@H](O)[C@H](O)[C@H]2O)cc1 | – |
